Reference: US20220332774A1, “THERAPEUTIC MITOCHONDRIAL PEPTIDES” (priority 2019, published 2022)

Each substance was assayed on 3T3-L1 Mouse Adipocytes (assay: Free fatty acid levels in cultured 3T3-L1 mouse adipocytes (isoproterenol stimulated)). Details: free fatty acid in medium; 5 μM peptide, 20-22 h pre-incubation then 3 h with 0.1 nM isoproterenol; isoproterenol alone = 100%.
Assay type: cell-based
Method in brief: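 3T3-L1 cells differentiated 12 days, insulin withdrawn, then peptides added on day 13 at 5 μM (0.1% DMSO) for 20-22 h at 37° C. After 3 h in assay buffer, medium free fatty acids read at 540 nm. Values expressed as percent of 0.1 nM isoproterenol-alone control.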

Substance | Percent of Isoproterenol Control Activity
9 (MAQTMPMYPNGSFFPE) [compound 9] | 98%
160 (MWLGVGLGWVG) [compound 160] | 102%
170 (MYNYAKAPTL) [compound 170] | 95%
56 (MKNHRCISTT) [compound 56] | 89%
95 (MNHIMAKGHDG) [compound 95] | 111%
113 (MQTKSLQSPQ) [compound 113] | 102%
159 (MWGVSDMLVFLEV) [compound 159] | 100%
173 (MYTPTNNVQPVTTTNQRP) [compound 173] | 114%
59 (MKSPSTLTTQSKTPSAYFSSFSP) [compound 59] | 100%
114 (MQWAILGLFVVG) [compound 114] | 76%
143 (MVGYLIPVWVLAIVCSDMLKPLS) [compound 143] | 107%
51 (MIEMGASFCHV) [compound 51] | 89%
79 (MMCLRFRWCGLWS) [compound 79] | 90%
198 (PIVTIMSPSWLEVEKATIFLMSFC) [compound 198] | 112%
47 (MHKHYYNKHPHHYNLP) [compound 47] | 96%
69 (MLMVEWWLGWLHM) [compound 69] | 104%
208 (CHWAGGASNTGDA) [compound 208] | 103%
14 (MDGCALLAVL) [compound 14] | 101%
93 (MMWKTIVVFQLQEHQWPQYAKLTP) [compound 93] | 96%
61 (MLFMRGNAMSGAPII) [compound 61] | 86%
49 (MHLVFSSGGYARDSIA) [compound 49] | 87%
66 (MLLGWRFQLGAWVGGLQ) [compound 66] | 104%
91 (MMTHPTTPLTINTKPP) [compound 91] | 93%
169 (MYLNGTCSAS) [compound 169] | 110%
16 (MDSWVVGVNEWG) [compound 16] | 89%
39 (MGNIIRAWCGEGCL) [compound 39] | 99%
186 (MIINDEYWLVVLVMVHCPESMLLK) [compound 186] | 105%

What follows are substances tested on H4-IIE Cells (assay: Glucose production in cultured H4-IIE cells). Details: glucose concentration in medium relative to untreated cells; 5 μM peptide, 24 h.
Assay type: cell-based, rat
Method in brief: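 Rat H4-IIE hepatoma cells primed overnight in glucose-free DMEM with 2 mM pyruvate and 10 mM lactate, then treated 24 h at 37 °C with 5 μM peptide (0.1% DMSO; concentration assumes ~2000 Da). Medium glucose measured colorimetrically at 570 nm. Values are percent of untreated-cell glucose production; 0.5-1 nM insulin served as inhibitor reference.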

Substance | Percent of Control Activity
9 (MAQTMPMYPNGSFFPE) [compound 9] | 90%
160 (MWLGVGLGWVG) [compound 160] | 102%
170 (MYNYAKAPTL) [compound 170] | 109%
56 (MKNHRCISTT) [compound 56] | 112%
95 (MNHIMAKGHDG) [compound 95] | 121%
113 (MQTKSLQSPQ) [compound 113] | 134%
159 (MWGVSDMLVFLEV) [compound 159] | 111%
173 (MYTPTNNVQPVTTTNQRP) [compound 173] | 103%
59 (MKSPSTLTTQSKTPSAYFSSFSP) [compound 59] | 108%
114 (MQWAILGLFVVG) [compound 114] | 118%
143 (MVGYLIPVWVLAIVCSDMLKPLS) [compound 143] | 111%
51 (MIEMGASFCHV) [compound 51] | 111%
79 (MMCLRFRWCGLWS) [compound 79] | 116%
198 (PIVTIMSPSWLEVEKATIFLMSFC) [compound 198] | 100%
47 (MHKHYYNKHPHHYNLP) [compound 47] | 107%
69 (MLMVEWWLGWLHM) [compound 69] | 111%
208 (CHWAGGASNTGDA) [compound 208] | 107%
14 (MDGCALLAVL) [compound 14] | 120%
93 (MMWKTIVVFQLQEHQWPQYAKLTP) [compound 93] | 120%
61 (MLFMRGNAMSGAPII) [compound 61] | 107%
49 (MHLVFSSGGYARDSIA) [compound 49] | 104%
66 (MLLGWRFQLGAWVGGLQ) [compound 66] | 101%
91 (MMTHPTTPLTINTKPP) [compound 91] | 116%
169 (MYLNGTCSAS) [compound 169] | 109%
16 (MDSWVVGVNEWG) [compound 16] | 89%
39 (MGNIIRAWCGEGCL) [compound 39] | 114%
186 (MIINDEYWLVVLVMVHCPESMLLK) [compound 186] | 115%

These substances were tested on C2C12 Cells (assay: Glucose utilization in cultured C2C12 cells (myotubes)). Details: glucose concentration in medium relative to untreated cells; 5 μM peptide, 22 h.
Assay type: cell-based, mouse
Method in brief: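 Differentiated mouse myotubes (5 days in 2% horse serum) serum-starved 5 h, then treated 22 h at 37 °C with peptide at 5 μM final (0.1% DMSO) in low-glucose (1 g/L) DMEM. Glucose remaining in medium measured colorimetrically at 570 nm. Expressed as percent of untreated control, from 2–3 experiments in triplicate.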

Substance | Percent of Control Activity
9 (MAQTMPMYPNGSFFPE) [compound 9] | 98%
160 (MWLGVGLGWVG) [compound 160] | 94%
170 (MYNYAKAPTL) [compound 170] | 106%
56 (MKNHRCISTT) [compound 56] | 104%
95 (MNHIMAKGHDG) [compound 95] | 92%
113 (MQTKSLQSPQ) [compound 113] | 97%
159 (MWGVSDMLVFLEV) [compound 159] | 102%
173 (MYTPTNNVQPVTTTNQRP) [compound 173] | 95%
59 (MKSPSTLTTQSKTPSAYFSSFSP) [compound 59] | 108%
114 (MQWAILGLFVVG) [compound 114] | 107%
143 (MVGYLIPVWVLAIVCSDMLKPLS) [compound 143] | 98%
51 (MIEMGASFCHV) [compound 51] | 103%
79 (MMCLRFRWCGLWS) [compound 79] | 94%
198 (PIVTIMSPSWLEVEKATIFLMSFC) [compound 198] | 88%
47 (MHKHYYNKHPHHYNLP) [compound 47] | 103%
69 (MLMVEWWLGWLHM) [compound 69] | 107%
208 (CHWAGGASNTGDA) [compound 208] | 89%
14 (MDGCALLAVL) [compound 14] | 100%
93 (MMWKTIVVFQLQEHQWPQYAKLTP) [compound 93] | 104%
61 (MLFMRGNAMSGAPII) [compound 61] | 104%
49 (MHLVFSSGGYARDSIA) [compound 49] | 108%
66 (MLLGWRFQLGAWVGGLQ) [compound 66] | 101%
91 (MMTHPTTPLTINTKPP) [compound 91] | 109%
169 (MYLNGTCSAS) [compound 169] | 107%
16 (MDSWVVGVNEWG) [compound 16] | 100%
39 (MGNIIRAWCGEGCL) [compound 39] | 107%
186 (MIINDEYWLVVLVMVHCPESMLLK) [compound 186] | 94%
